Measured values reported in US20200172911A1, “USP30 INHIBITORS AND METHODS OF USE” (Genentech, Inc., priority 2012, published 2020).

Tests used:
Format in all cases: cell-based, human
[1] = tested on: GFP-Parkin expressing stable HEK-293 cells; experiment: HA-ubiquitin immunoprecipitation and immunoblot of MIRO and Tom20; details: HA-ubiquitin immunoprecipitates, CCCP 5 μM, 2 hours
Protocol: For total lysate experiments, transfected HEK-293 cells were lysed at 24 hours post-transfection in SDS sample buffer (Invitrogen) containing sample reducing agent (Invitrogen). For immunoprecipitation experiments, cells were lysed at 24 hours (overexpression experiments) or 6 days (knockdown experiments) post-transfection in TBS buffer containing 0.5% SDS, and lysates were diluted with a buffer containing 1% Triton-X-100 and protease and phosphatase inhibitors. Ubiquitinated proteins were immunoprecipated from lysates of HA-ubiquitin transfected cells with anti-HA affinity matrix beads (Roche Applied Science). Inputs and precipitates were resolved by SDS-PAGE and analyzed by immunoblotting.
For total lysate experiments, cells were lysed after 24 hours in SDS sample buffer (Invitrogen) containing sample reducing agent (Invitrogen) and boiled at 95° C. for 10 minutes. Total lysates were resolved by SDS-PAGE and analyzed by immunoblotting. For immunoprecipitation experiments, cells were treated with 5 μM MG132 and the indicated concentrations and durations of CCCP at 24 hours (overexpression experiments) or 6 days (knockdown experiments) in 0.5% SDS in Tris-Buffered Saline (10 mM TRIS, 150 mM NaCl, pH 8.0) and boiled at 70° C. for 10 minutes. […] Inputs and anti-HA immunoprecipitates were resolved by SDS-PAGE and analyzed by immunoblotting. […]

HEK-293 cells = experiment: global ubiquitination (K-GG) mass spectrometry, USP30 knockdown; details: CCCP 5 μM, 2 hours
Protocol: (§1) To determine Parkin substrates, HEK-293 GFP-Parkin inducible cells were treated with doxycycline for 24 hours, and then treated with 5 μM CCCP or DMSO vehicle control for 2 hours. To determine USP30 substrates, HEK-293T cells were transfected with human USP30 shRNA using Lipofectamine 2000 (Invitrogen) for 6 days, then treated as before. […] Preparation of cellular lysates and immunoprecipitation
To identify Parkin substrates, HEK 293T cells stably expressing inducible GFP-Parkin (human) were induced using doxycycline (1 μg/mL) for 24 hours, then treated with 5 μM CCCP or DMSO vehicle control for 2 hours. To determine USP30 substrates, HEK 293T cells were transfected with human USP30 shRNA using Lipofectamine 2000 (Invitrogen) for 6 days, then treated as above.
Immunoaffinity isolation and mass spectrometry methods were used to enrich and identify K-GG peptides from digested protein lysates as previously described (Xu et al., Nat. Biotech., 28: 868-873 (2010); Kim et al., Mol. Cell, 44: 325-340 (2011)). Cell lysates were prepared in lysis buffer (8M urea 20 mM HEPES pH 8.0 with 1 mM sodium orthovanadate, 2.5 mM sodium pyrophosphate, 1 mM ß-glycerophosphate) by brief sonication on ice. Protein samples (60 mg) were reduced at 60° C. for 20 min in 4.1 mM DTT, cooled 10 min on ice, and alkylated with 9.1 mM iodoacetamide for 15 min at room temperature in the dark. […]

USP30 = USP30 knockdown efficiency in HEK-293 cells
Protocol: as §1
Since Parkin and USP30 antagonistically regulate mitochondrial degradation, it was hypothesized that this E3 ligase and DUB act on some common substrates. To identify Parkin and USP30 substrates, global ubiquitination in cells was analyzed by mass spectrometry (MS) following immunoaffinity enrichment of ubiquitinated peptides from trypsin-digested extracts using the ubiquitin branch-specific (K-GG) antibodies. Global ubiquitination was analyzed and quantified by MS in HEK-293 cells in two different sets of conditions: 1) inducible Parkin overexpression, or 2) USP30 knockdown (USP30 knockdown efficiency was 85±5% (see FIG. 7C)). In each set, cells were treated with CCCP (5 μM, 2 hours) or vehicle control (DMSO).

[2] = tested on: GFP-Parkin stable cell lines (HEK-293); experiment: immunoblot of mitochondrial protein levels during CCCP treatment; details: CCCP 5 μM, t=6 h, p<0.01
Protocol: For total lysate experiments, cells were lysed after 24 hours in SDS sample buffer (Invitrogen) containing sample reducing agent (Invitrogen) and boiled at 95° C. for 10 minutes. Total lysates were resolved by SDS-PAGE and analyzed by immunoblotting. For immunoprecipitation experiments, cells were treated with 5 μM MG132 and the indicated concentrations and durations of CCCP at 24 hours (overexpression experiments) or 6 days (knockdown experiments) in 0.5% SDS in Tris-Buffered Saline (10 mM TRIS, 150 mM NaCl, pH 8.0) and boiled at 70° C. for 10 minutes. […] Inputs and anti-HA immunoprecipitates were resolved by SDS-PAGE and analyzed by immunoblotting.
Beyond ubiquitination, does USP30 regulate protein turnover in addition to ubiquitination? […] In contrast to the outer membrane proteins, mitochondrial matrix protein HSP60 and inner membrane protein TIMM8A were unchanged by CCCP within this time frame. Overexpression of USP30 in GFP-Parkin stable cells greatly attenuated or abolished the CCCP-induced depletion of MIRO and Tom20 (FIG. 6G, H). Stabilization by USP30 overexpression appeared to be relatively specific for MIRO and Tom20, since CCCP-induced degradation of other mitochondria membrane proteins (MFN-1, TOM70, VDAC) was unaffected (FIG. 6G, H).

[3] = tested on: HeLa cells cotransfected with GFP-Parkin; experiment: mitochondrial degradation assay / DUB cDNA overexpression screen (Tom20 staining); details: CCCP 20 μM, 24 hours
Protocol: To identify regulators of mitophagy, individual cDNAs from a FLAG-tagged DUB library were cotransfected into HeLa cells with GFP-Parkin using Lipofectamine 2000 (Invitrogen) (1:3 DUB-FLAG: GFP-Parkin cDNA ratio). After 24 hours of expression, cells were treated with […] CCCP for 24 hours, and fixed and stained using anti-Tom20 (Santa Cruz Biotechnology), anti-GFP (Aves Labs) and anti-FLAG (Sigma) primary antibodies. Following staining with secondary antibodies, images of random fields were acquired with a Leica SP5 Laser Scanning Confocal Microscope using a 40×/1.25 oil-objective (0.34 μm/pixel resolution, 1 μm confocal z-step size). Percent of GFP-Parkin and FLAG-DUB cotransfected cells containing Tom20 staining was scored blindly.
To identify DUBs that regulate mitochondria clearance, a FLAG-tagged human DUB cDNA library (97 DUBs) was screened in an established mitochondrial degradation assay (Narendra et al., J. Cell Biol., 183: 795-803 (2008)). In this assay, mitochondria depolarization induced by protonophore carbonyl cyanide 3-chlorophenylhydrazone (CCCP, 20 μM, 24 hours) results in marked loss of mitochondria in cultured cells overexpressing Parkin (as measured by staining for mitochondria outer membrane protein marker Tom20). […] Individual FLAG-tagged DUB cDNAs were cotransfected with GFP-Parkin, and their effects on CCCP-induced mitochondrial (Tom20) clearance were measured. […]

Molecule: CCAGAGTCCTGTTCGATTT ((CCAGAGTCCTGTTCGATTT; as printed in the source, key not given here) [human USP30 shRNA]
- increase in level of ubiquitinated MIRO [1]: ~2.5 fold
- USP30 shRNA+CCCP/CCCP ubiquitination ratio for Tom20 (HEK-293 cells; p=0.005): 3.52
- USP30 shRNA+CCCP/CCCP ubiquitination ratio for MIRO (HEK-293 cells; p=0.019): 2.95
- USP30 knockdown efficiency (USP30): 85±5%

Molecule: N#CC(C#N)=NNc1cccc(Cl)c1 [CCCP, carbonyl cyanide 3-chlorophenylhydrazone]
- decrease in Tom20 protein level [2]: 10+/−1%
- Parkin-transfected cells lacking Tom20 staining [3]: > 80%
